Reference: patent publication US7452997B2 (priority 2004, dated 2008)
Read-outs that look alike come from different tables or passages of the source.

Assays:
human CB1 receptor = molecular target: T1, human CB1 receptor (Homo sapiens, UniProt P21554); assay: biochemical; assay type: binding
T1 construct: expressed in transfected cells; host or cells: SK-N-MC cells, stably transfected with pcDNA3 CB-1 (human); semi-purified membrane pellet
Outline: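 Membranes from SK-N-MC cells stably expressing human CB1, incubated 90 minutes at 30° C in Tris-HCl buffer with MgCl2, EDTA and fatty acid free BSA, pH 7.5. Bound counts collected by filtration and scintillation counting; IC50 from linear regression over varying compound concentrations.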

human CB2 receptor = human CB2 receptor (Homo sapiens, UniProt P34972); assay: Binding assay, cannabinoid CB2 receptor ([3H]-CP-55,940 displacement); details: SK-N-MC cell membranes, radioligand CP-55,940 0.2 nM
Sequence of human CB2 receptor (P34972 whole entry): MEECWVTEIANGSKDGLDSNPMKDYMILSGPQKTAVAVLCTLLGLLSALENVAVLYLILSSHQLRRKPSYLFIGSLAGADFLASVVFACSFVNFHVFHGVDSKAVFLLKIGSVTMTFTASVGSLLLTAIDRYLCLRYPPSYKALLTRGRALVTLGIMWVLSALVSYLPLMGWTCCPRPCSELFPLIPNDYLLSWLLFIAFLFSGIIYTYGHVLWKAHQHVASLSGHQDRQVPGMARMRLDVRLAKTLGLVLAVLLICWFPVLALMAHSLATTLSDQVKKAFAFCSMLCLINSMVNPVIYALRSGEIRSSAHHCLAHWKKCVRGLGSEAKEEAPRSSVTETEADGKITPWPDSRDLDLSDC
Experimental: Binding Assay for CB1 or CB2 Agonists or Inverse Agonists
The human CB1 and CB2 receptors were stably expressed in SK-N-MC cells transfected with pcDNA3 CB-1 (human) or pcDNA3 CB-2 (human). The cells were grown in T-180 cell culture flasks under standard cell culture conditions at 37° C. in a 5% CO2 atmosphere. The cells were harvested by trysinization and homogenized in a homogenization buffer (10 mM Tris, 0.2 mM MgCl2, 5 mM KCl, with protease inhibitors aprotinin, leupeptin, pepstatin A and bacitracin) and centrifuged (2000 g). The supernatant was then centrifuged in 2M sucrose (31,300 g) to produce a semi-purified membrane pellet. The pellet was resuspended in homogenization and store at −80° C.
On the day of the assay, the pellet was thawed on ice and diluted in assay buffer (50 mM Tris-HCl, 5 mM MgCl2, 2.5 mM EDTA, 0.5 mg/mL fatty acid free bovine serum albumin, pH 7.5). The diluted membrane was added with buffer, test compound or standard and the radioligand [H]^3+-CP-55,940_(0.2 nM) to the wells of a 96-well polypropylene plate. Non-specific binding was measured in wells containing 10 uM WIN 55,212. The plate was covered and incubated for 90 minutes at 30° C. The contents were then aspirated onto a Packard UNIFILTER GF/C filter bottom plate prewet with 0.5% polyethyleneimine. The wells of the polypropylene plate were rinsed and aspirated seven times with a 0.9% saline-0.5% TWEEN 20 solution. The UNIFILTER plate was dried, a scintillation cocktail was added to each well and the counts representing binding were quantitated in a TOPCOUNT scintillation counter.
The IC50 binding values for compounds tested were calculated by linear regression and were obtained from studies in which varying compound concentrations were used.

[1] = Cannabinoid CB2 Receptor Binding IC50, human CB2 receptor

T1 sequence (P21554 whole entry): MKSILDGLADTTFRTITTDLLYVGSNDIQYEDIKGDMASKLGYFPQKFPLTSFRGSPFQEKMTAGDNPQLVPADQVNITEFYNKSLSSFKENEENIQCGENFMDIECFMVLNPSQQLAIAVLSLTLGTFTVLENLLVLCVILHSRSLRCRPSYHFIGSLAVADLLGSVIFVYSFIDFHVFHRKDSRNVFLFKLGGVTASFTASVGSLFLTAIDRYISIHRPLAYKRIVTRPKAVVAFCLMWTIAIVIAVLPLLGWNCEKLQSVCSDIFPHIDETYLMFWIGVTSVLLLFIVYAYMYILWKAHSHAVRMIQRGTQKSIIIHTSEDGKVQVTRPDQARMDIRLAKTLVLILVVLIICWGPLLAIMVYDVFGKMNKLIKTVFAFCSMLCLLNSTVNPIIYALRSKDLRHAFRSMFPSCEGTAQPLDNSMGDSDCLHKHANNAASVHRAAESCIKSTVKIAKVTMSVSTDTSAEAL

| Structure (SMILES) | IC50 (human CB1 receptor) | IC50 (human CB2 receptor; [1]) | IC50 (human CB1 receptor; human CB1 receptor, SK-N-MC cell membranes, radioligand CP-55,940 0.2 nM, read-out: Cannabinoid CB1 Receptor Binding IC50) | IC50 (human CB2 receptor; human CB2 receptor, read-out: Cannabinoid CB2 Receptor Binding IC50) |
| --- | --- | --- | --- | --- |
| CC12CCC(C1)C(C)(C)C2NC(=O)c1nn(C2CCCCCC2)c2c1CCCC2 (centres unmarked) [compound 74] | 15 nM | 1.4 nM | – | – |
| COC(=O)C(Cc1ccc(O)cc1)NC(=O)c1nn(C2CCCCC2)c2c1CCCC2 (centres unmarked) [compound 77] | 52 nM | 3 nM | – | – |
| O=C(NC(Cc1ccc(OCc2ccccc2)cc1)C(=O)O)c1nn(C2CCCCC2)c2c1CCCC2 (centres unmarked) [compound 78] | 4600 nM | 1210 nM | – | – |
| O=C(NC1C2CC3CC(C2)CC1C3)c1nn(C2CCCCC2)c2c1CC(C(=O)OCc1ccccc1)CC2 (centres unmarked) [compound 79] | 30 nM | 10 nM | – | – |
| COC(=O)C(Cc1ccc(OCc2ccccc2)cc1)NC(=O)c1nn(Cc2ccccc2)c2c1CCCC2 (centres unmarked) [compound 80] | 230 nM | 170 nM | – | – |
| COC(=O)C(Cc1ccc(OCc2ccccc2)cc1)NC(=O)c1nn(C2CCCCC2)c2c1CCCC2 (centres unmarked) [compound 81] | 490 nM | 20 nM | – | – |
| COC(=O)C(Cc1ccc(O)c(O)c1)NC(=O)c1nn(Cc2ccccc2)c2c1CCCC2 (centres unmarked) [compound 82] | 700 nM | 200 nM | – | – |
| COC(=O)C(Cc1c[nH]c2ccccc12)NC(=O)c1nn(Cc2ccccc2)c2c1CCCC2 (centres unmarked) [compound 83] | 38 nM | 20 nM | – | – |
| CC(C)(C)OC(=O)NC1CCc2c(c(C(=O)NC3C4CC5CC(C4)CC3C5)nn2C2CCCCC2)C1 (centres unmarked) [compound 85] | 600 nM | 82 nM | – | – |
| COC(=O)NC1CCc2c(c(C(=O)NC3C4CC5CC(C4)CC3C5)nn2C2CCCCC2)C1 (centres unmarked) [compound 88] | 2400 nM | 87 nM | – | – |
| O=C(NC1C2CC3CC(C2)CC1C3)c1nn(C2CCCCC2)c2c1CC(NC(=O)N1CCOCC1)CC2 (centres unmarked) [compound 90] | 1840 nM | 1120 nM | – | – |
| CC(NC(=O)c1nn(C2CCCCC2)c2c1CC(=O)CC2)C12CC3CC(CC(C3)C1)C2 (centres unmarked) [compound 97] | 9700 nM | 30 nM | – | – |
| CC(C)(C)C1CCc2c(c(C(=O)NC3C4(C)CCC(C4)C3(C)C)nn2C2CCCCC2)C1 (centres unmarked) [compound 99] | 960 nM | 250 nM | – | – |
| CS(=O)(=O)NC1CCc2c(c(C(=O)NC3C4CC5CC(C4)CC3C5)nn2C2CCCCC2)C1 (centres unmarked) [compound 104] | 17100 nM | 200 nM | – | – |
| CCOC[C@H]1C2CCC(C2)[C@H]1NC(=O)c1nn(C2CCCCC2)c2c1CCCC2 (some centres unmarked) [compound 107] | 910 nM | 1400 nM | – | – |
| CCOC(=O)C1CC=CCC1NC(=O)c1nn(Cc2ccccc2)c2c1CCCC2 (centres unmarked) [compound 119] | 6 nM | 10 nM | – | – |
| CCOC(=O)C1CC=CCC1NC(=O)c1nn(C2CCCCC2)c2c1CCCC2OC (centres unmarked) [compound 120] | 2460 nM | 875 nM | – | – |
| CCOC(=O)[C@H]1C2CCC(C2)[C@H]1NC(=O)c1nn(CC2CCCCC2)c2c1CCCC2 (some centres unmarked) [compound 124] | 7 nM | 16 nM | – | – |
| Cc1ccc(Cn2nc(C(=O)NC3C4(C)CCC(C4)C3(C)C)c3c2CCCC3)cc1 (centres unmarked) [compound 125] | 26 nM | 2.2 nM | – | – |
| CCOC(=O)C1C2CCC(C2)C1NC(=O)c1nn(Cc2ccc(C)cc2)c2c1CCCC2 (centres unmarked) [compound 126] | 597 nM | 593 nM | – | – |
| O=C(NC1CCCCCCC1)c1nn(Cc2ccccc2)c2c1CCCC2 [compound 127] | 9.9 nM | 3.9 nM | – | – |
| CC12CCC(C1)C(C)(C)C2NC(=O)c1nn(-c2ccc(Cl)cc2Cl)c2c1CCCC2 (centres unmarked) [compound 129] | 5.7 nM | 1.7 nM | – | – |
| CCOC(=O)[C@H]1C2CCC(C2)[C@H]1NC(=O)c1nn(-c2ccc(Cl)cc2Cl)c2c1CCCC2 (some centres unmarked) [compound 130] | 400 nM | 5 nM | – | – |
| O=C(NC1C2CC3CC(C2)CC1C3)c1nn(-c2ccc(Cl)cc2Cl)c2c1CCCC2 (centres unmarked) [compound 131] | 30 nM | 10 nM | – | – |
| CC(NC(=O)c1nn(C2CCCCC2)c2c1CC(C(=O)O)CC2)C12CC3CC(CC(C3)C1)C2 (centres unmarked) [compound 133] | 12000 nM | 1340 nM | – | – |
| O=C(NCC12CC3CC(CC(C3)C1)C2)c1nn(Cc2ccccc2)c2c1CCCC2 [compound 135] | 670 nM | 20 nM | – | – |
| O=C(NC1C2CC3CC(C2)CC1C3)c1nn(Cc2ccccc2)c2c1CCCC2 (centres unmarked) [compound 136] | 0.8 nM | 0.5 nM | – | – |
| CCOC(=O)C1CCc2c(c(C(=O)NC3C4CCC(C4)C3C(=O)OCC)nn2C2CCCCC2)C1 (centres unmarked) [compound 137] | 3950 nM | 1550 nM | – | – |

| Structure (SMILES) | IC50 (human CB1 receptor) | IC50 (human CB2 receptor; [1]) | IC50 (human CB1 receptor; human CB1 receptor, SK-N-MC cell membranes, radioligand CP-55,940 0.2 nM, read-out: Cannabinoid CB1 Receptor Binding IC50) | IC50 (human CB2 receptor; human CB2 receptor, read-out: Cannabinoid CB2 Receptor Binding IC50) |
| --- | --- | --- | --- | --- |
| O=C(NC12CC3CC(CC(C3)C1)C2)c1nn(-c2ccc(Cl)cc2Cl)c2c1CCCC2 [compound 139] | 160 nM | 300 nM | – | – |
| O=C(NC12CC3CC(CC(C3)C1)C2)c1c2c(nn1-c1ccc(Cl)cc1Cl)CCCC2 [compound 140] | 890 nM | 3400 nM | – | – |
| O=C(NCC12CC3CC(CC(C3)C1)C2)c1nn(-c2ccc(Cl)cc2Cl)c2c1CCCC2 [compound 141] | 300 nM | 140 nM | – | – |
| O=C(NCC12CC3CC(CC(C3)C1)C2)c1c2c(nn1-c1ccc(Cl)cc1Cl)CCCC2 [compound 142] | 600 nM | 400 nM | – | – |
| O=C(NCC12CC3CC(CC(C3)C1)C2)c1nn(-c2ccc(F)cc2)c2c1CCCC2c1ccccc1 (centres unmarked) [compound 145] | 950 nM | 1100 nM | – | – |
| CCOC(=O)C1CCc2c(c(C(=O)NC(C)C34CC5CC(CC(C5)C3)C4)nn2Cc2ccccc2)C1 (centres unmarked) [compound 148] | 13 nM | 30 nM | – | – |
| O=C(NC12CC3CC(CC(C3)C1)C2)c1nn(-c2ccc(F)cc2)c2c1CCCC2CCc1ccccc1 (centres unmarked) [compound 150] | 130 nM | 40 nM | – | – |
| O=C(NCC12CC3CC(CC(C3)C1)C2)c1nn(-c2ccc(F)cc2)c2c1CCCC2CCc1ccccc1 (centres unmarked) [compound 152] | 340 nM | 200 nM | – | – |
| CC(NC(=O)c1nn(-c2ccc(F)cc2)c2c1CCCC2CCc1ccccc1)C12CC3CC(CC(C3)C1)C2 (centres unmarked) [compound 153] | 1390 nM | 60 nM | – | – |
| CCOC(=O)C1CCCc2c1c(C(=O)NC1C3CC4CC(C3)CC1C4)nn2Cc1ccccc1 (centres unmarked) [compound 158] | 13 nM | 9 nM | – | – |
| CCOC(=O)C1CCCc2c1c(C(=O)NCC13CC4CC(CC(C4)C1)C3)nn2Cc1ccccc1 (centres unmarked) [compound 159] | 740 nM | 130 nM | – | – |
| COC1CCCc2c(C(=O)NC(C)C34CC5CC(CC(C5)C3)C4)nn(C3CCCCC3)c21 (centres unmarked) [compound 161] | 5230 nM | 775 nM | – | – |
| COC1CCCc2c(C(=O)NC3C4CC5CC(C4)CC3C5)nn(C3CCCCC3)c21 (centres unmarked) [compound 162] | – | – | 635 nM | 110 nM |
| CC(NC(=O)c1nn(C2CCCCC2)c2c1CCCC2O)C12CC3CC(CC(C3)C1)C2 (centres unmarked) [compound 163] | 4770 nM | 210 nM | – | – |
| CCOC(=O)N1CCC(NC(=O)c2nn(Cc3ccccc3)c3c2CCCC3)CC1 [compound 171] | 640 nM | 300 nM | – | – |
| O=C(NCc1cccnc1)c1nn(C2CCCCC2)c2c1CCCC2 [compound 173] | 444 nM | 526 nM | – | – |
| O=C(CNC(=O)c1nn(C2CCCCC2)c2c1CCCC2)c1ccc(Br)cc1 [compound 177] | 10500 nM | 2400 nM | – | – |
| O=C(Nc1nn(C2CCCCC2)c2c1CCCC2)C12CC3CC(CC(C3)C1)C2 [compound 179] | 7300 nM | 700 nM | – | – |
| O=C(Nc1nn(C2CCCCC2)c2c1CCCC2)C1CCCCC1 [compound 180] | 700 nM | 1700 nM | – | – |
| O=C(Nc1nn(C2CCCCC2)c2c1CCCC2)c1cccc2ccccc12 [compound 181] | 300 nM | 1600 nM | – | – |
| O=C(NC1CCCc2ccccc21)c1nn(C2CCCCC2)c2c1CCCC2 (centres unmarked) [compound 183] | 50 nM | 6.9 nM | – | – |
| O=C(NCC(O)C1CCCCC1)c1nn(C2CCCCC2)c2c1CCCC2 (centres unmarked) [compound 185] | 900 nM | 120 nM | – | – |
| O=C(NCC(=O)C1CCCCC1)c1nn(C2CCCCC2)c2c1CCCC2 [compound 187] | 3690 nM | 1600 nM | – | – |
| O=C(NCC1CCCCC1)c1nn(Cc2ccccc2)c2c1CCCC2 [compound 189] | 10 nM | 10 nM | – | – |
| CCOC(=O)C1CCc2nn(C3CCCCC3)c(C(=O)NC(C)C34CC5CC(CC(C5)C3)C4)c2C1 (centres unmarked) [compound 190] | 1620 nM | 4500 nM | – | – |
| CCC1CCCc2c(C(=O)NC3C4(C)CCC(C4)C3(C)C)nn(-c3ccc(F)cc3)c21 (centres unmarked) [compound 192] | 60 nM | 2 nM | – | – |
| CC(NC(=O)c1nn(C2CCCCC2)c2c1CCCC2)C1CCCC1 (centres unmarked) [compound 193] | 120 nM | 5 nM | – | – |
